{"source": "patent US8067424B2", "about": "“Selective inhibitors for cyclin-dependent kinases” (Emory University, priority 2007, dated 2011)", "key": {"[1]": {"target": "HIPK3 (Homo sapiens, UniProt Q9H422)", "sequence (Q9H422 whole entry, species assumed)": "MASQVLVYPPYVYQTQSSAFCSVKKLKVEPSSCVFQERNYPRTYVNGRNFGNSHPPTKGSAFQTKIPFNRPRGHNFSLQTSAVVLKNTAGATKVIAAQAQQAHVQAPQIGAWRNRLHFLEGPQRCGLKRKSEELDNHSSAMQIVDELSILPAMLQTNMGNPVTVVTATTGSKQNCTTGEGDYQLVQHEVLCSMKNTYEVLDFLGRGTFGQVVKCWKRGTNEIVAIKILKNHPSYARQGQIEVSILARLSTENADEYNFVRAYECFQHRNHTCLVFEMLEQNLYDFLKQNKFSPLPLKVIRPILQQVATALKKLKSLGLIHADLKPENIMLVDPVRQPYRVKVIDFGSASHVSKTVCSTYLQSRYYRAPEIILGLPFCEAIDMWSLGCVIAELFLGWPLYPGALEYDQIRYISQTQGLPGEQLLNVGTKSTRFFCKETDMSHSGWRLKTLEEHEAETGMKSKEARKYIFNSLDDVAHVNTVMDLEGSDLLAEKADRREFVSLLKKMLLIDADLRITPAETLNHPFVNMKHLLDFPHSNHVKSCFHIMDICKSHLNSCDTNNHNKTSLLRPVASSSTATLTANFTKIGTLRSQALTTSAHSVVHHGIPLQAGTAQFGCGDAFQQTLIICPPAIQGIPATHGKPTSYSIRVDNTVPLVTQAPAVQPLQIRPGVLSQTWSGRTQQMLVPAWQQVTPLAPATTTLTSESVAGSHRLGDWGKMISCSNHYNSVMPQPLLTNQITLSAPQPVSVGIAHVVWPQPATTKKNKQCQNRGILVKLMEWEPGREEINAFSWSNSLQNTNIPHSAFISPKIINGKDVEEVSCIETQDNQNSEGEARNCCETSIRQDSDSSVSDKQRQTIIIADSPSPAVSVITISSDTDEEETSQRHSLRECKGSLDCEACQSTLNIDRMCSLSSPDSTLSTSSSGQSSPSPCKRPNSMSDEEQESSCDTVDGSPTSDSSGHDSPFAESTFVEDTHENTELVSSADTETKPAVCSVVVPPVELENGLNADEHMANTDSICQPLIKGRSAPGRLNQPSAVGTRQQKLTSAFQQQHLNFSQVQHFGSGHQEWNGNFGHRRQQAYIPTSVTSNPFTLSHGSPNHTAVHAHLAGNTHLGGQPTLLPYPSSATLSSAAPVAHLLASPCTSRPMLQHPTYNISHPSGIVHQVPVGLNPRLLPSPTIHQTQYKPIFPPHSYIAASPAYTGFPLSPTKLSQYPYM", "assay": "Kinase screen: HIPK3 assay", "assay_type": "biochemical", "details": "read-out: Mean Remaining Enzyme Activity (%)", "method": "(§1) Generally, the same procedure was used for all assays. Since the total assay volume was 25.5 microliters, 0.5 microliters of inhibitors at 51× assay concentration were added to the plates before any other addition.\n(§2) The basic procedure was to add 0.5 microliters inhibitor/control in DMSO to plate. Fifteen microliters of enzyme/substrate/buffer mix were added and incubated for 5 min. Ten microliters MgATP at the relevant concentration were added and incubated for 30 min. The assay was stopped by adding 5 microliters of 3% orthophosphoric acid. The assay was transferred to a p81 filter plate and read in a scintillation counter of 30 sec/well. Note that this assay procedure was not followed for MKK1, which instead involved a two-step assay, and PKC alpha, which required the addition of lipid vesicles.\nHIPK3 assay: 5-20 mU of HIPK3 (diluted in 50 mM Tris (pH 7.5), 0.1 mM EGTA, 1 mg/ml BSA, 0.1%, b-Mercaptoethanol) was assayed against MBP in a final volume of 25.5 μl containing 50 mM Tris (pH 7.5), 0.1 mM EGTA, 0.1%, b-Mercaptoethanol, 0.33 mg/ml MBP, 10 mM magnesium acetate and 0.02 mM [33P-g-ATP] (500-1000 cpm/pmole) and incubated for 30 mins at room temperature. Assays were stopped by addition of 5 μl of 0.5M (3%) orthophosphoric acid. Assays were harvested onto P81 Unifilter plates using a wash buffer of 50 mM orthophosphoric acid."}, "[2]": {"target": "NEK7 (Homo sapiens, UniProt Q8TDX7)", "sequence (Q8TDX7 whole entry, species assumed)": "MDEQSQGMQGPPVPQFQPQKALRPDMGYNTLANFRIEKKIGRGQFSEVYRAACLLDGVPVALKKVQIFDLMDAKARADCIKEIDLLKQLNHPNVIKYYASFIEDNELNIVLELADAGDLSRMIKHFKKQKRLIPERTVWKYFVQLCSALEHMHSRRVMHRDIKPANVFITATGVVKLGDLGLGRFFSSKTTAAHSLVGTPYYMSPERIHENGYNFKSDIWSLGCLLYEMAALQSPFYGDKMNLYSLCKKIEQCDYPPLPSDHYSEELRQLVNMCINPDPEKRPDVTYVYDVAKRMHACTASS", "assay": "Kinase screen: NEK7 assay", "assay_type": "biochemical", "details": "read-out: Mean Remaining Enzyme Activity (%)", "method": "as §1, §2\n(500-1000 cpm/pmole) and incubated for 30 min at room temperature. Assays were stopped by addition of 5 μl of 0.5 M (3%) orthophosphoric acid and then harvested onto P81 Unifilter plates with a wash buffer of 50 mM orthophosphoric acid."}, "[3]": {"target": "AURORA B (Homo sapiens, UniProt Q96GD4)", "sequence (Q96GD4 whole entry)": "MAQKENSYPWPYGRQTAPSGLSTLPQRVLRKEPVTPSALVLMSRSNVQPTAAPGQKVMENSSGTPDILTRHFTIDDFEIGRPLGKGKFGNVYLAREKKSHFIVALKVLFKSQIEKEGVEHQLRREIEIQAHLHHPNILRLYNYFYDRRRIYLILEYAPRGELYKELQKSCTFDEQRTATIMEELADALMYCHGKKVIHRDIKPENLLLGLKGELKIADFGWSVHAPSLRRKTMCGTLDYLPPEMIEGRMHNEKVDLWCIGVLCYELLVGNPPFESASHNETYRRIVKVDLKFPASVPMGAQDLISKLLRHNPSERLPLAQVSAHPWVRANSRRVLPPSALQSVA", "assay": "Kinase screen: Aurora B assay", "assay_type": "biochemical", "details": "read-out: Mean Remaining Enzyme Activity (%)", "method": "as §1, §2\nAurora B assay: Aurora B (5-20 mU diluted in 50 mM Tris pH 7.5, 0.1 mM EGTA, 0.1% b-mercaptoethanol, 1 mg/ml BSA) was assayed against a substrate peptide ([…]) (SEQ ID NO: 26) in a final volume of […] containing 50 mM Tris pH 7.5, 0.05% b-mercaptoethanol, 300 μM substrate peptide, 10 mM magnesium acetate and 0.02 mM [33P-g-ATP] (50-1000 cpm/pmole) and incubated for 30 min at room temperature. Assays were stopped by addition of 5 μl of 0.5 M (3%) orthophosphoric acid and then harvested onto P81 Unifilter plates with a wash buffer of 50 mM orthophosphoric acid."}, "[4]": {"tested_on": "MCF-7 tumors", "assay": "MCF-7 tumor growth in nude mice, BS-194 subcutaneous", "assay_type": "in vivo, Balb/c nude mice", "details": "subcutaneous twice daily, 14 days", "method": "In all, 32 female 8- to 10-week Balb/c nude mice (Harlan UK) were randomly divided into three groups. The mice received 0.72 mg 60-day release E2 pellets (Innovative Research of America, USA), subcutaneously implanted in one flank. MCF7 cells, were trypsinized and 5×10^6 cells in 0.1 ml of PBS were subcutaneously injected into the other flank of each mouse and tumor volumes were measured every 2-3 days, according to the formula (tumor width squared×tumor length)/2. Animal weight was also recorded throughout the course of the study. The animals were injected subcutaneously with BS-194, prepared in 10% DMSO, 50 mM HCl, 5% Tween 20, and 85% Saline, twice daily for 14 days, at which point the animals were sacrificed. The xenograft experiments were conducted after appropriate ethical approval and licensing was obtained in accordance with the UK ‘Guidance on the operation of animals (Scientific Procedure) Act 1986 (HMSO, London, UK, 1990)."}, "[5]": {"tested_on": "SK-MEL-5"}, "[6]": {"tested_on": "MCF7", "assay": "cells", "details": "Homo sapiens"}, "[7]": {"tested_on": "SNB-19", "assay": "cells", "details": "Homo sapiens"}, "[8]": {"tested_on": "CAKI-1"}, "[9]": {"tested_on": "A549/ATCC", "assay": "cells", "details": "Homo sapiens"}, "[10]": {"tested_on": "CCRF-CEM", "assay": "cells", "details": "Homo sapiens"}, "[11]": {"tested_on": "HOP-62"}, "[12]": {"tested_on": "K-562", "assay": "cells", "details": "Homo sapiens"}, "[13]": {"tested_on": "MDA-MB-435", "assay": "cells", "details": "Homo sapiens"}, "[14]": {"tested_on": "DU-145", "assay": "cells", "details": "Homo sapiens"}, "[15]": {"tested_on": "SNB-75", "assay": "cells", "details": "Homo sapiens"}, "[16]": {"details": "SK-MEL-5, log10 concentration −4.0"}, "[17]": {"details": "SK-MEL-5, log10 concentration −5.0"}, "[18]": {"details": "SK-MEL-5, log10 concentration −6.0"}, "[19]": {"details": "SK-MEL-5, log10 concentration −7.0"}, "[20]": {"details": "SK-MEL-5, log10 concentration −8.0"}, "[21]": {"details": "CAKI-1, log10 concentration −4.0"}, "[22]": {"details": "CAKI-1, log10 concentration −5.0"}, "[23]": {"details": "CAKI-1, log10 concentration −6.0"}, "[24]": {"details": "CAKI-1, log10 concentration −7.0"}, "[25]": {"details": "CAKI-1, log10 concentration −8.0"}, "[26]": {"details": "HOP-62, log10 concentration −4.0"}, "[27]": {"details": "HOP-62, log10 concentration −5.0"}, "[28]": {"details": "HOP-62, log10 concentration −6.0"}, "[29]": {"details": "HOP-62, log10 concentration −7.0"}, "[30]": {"details": "HOP-62, log10 concentration −8.0"}}, "note": "Read-outs that look alike come from different tables or passages of the source.", "data": [{"smiles": "CC(C)c1cnn2c(NCc3ccccc3)cc(NCCCCCCCN)nc12", "note": "[BS-181]", "values": [{"measurement": "remaining activity at 10 µM", "setting": "[1]", "value": 90, "unit": "%"}, {"measurement": "remaining activity at 10 µM", "setting": "[2]", "value": 97, "unit": "%"}, {"measurement": "remaining activity at 10 µM", "setting": "[3]", "value": 95, "unit": "%"}]}, {"smiles": "CC(C)c1cnn2c(NCc3ccccc3)cc(N[C@@H](CO)[C@H](O)CO)nc12", "note": "[ICEC0318, (3S)-3-(7-(Benzylamino)-3-isopropylpyrazolo[1,5-a]pyrimidin-5-ylamino)butane-1,2,4-triol]", "values": [{"measurement": "Change in animal weight", "setting": "[4]", "value": "nearly constant"}, {"measurement": "TGI", "setting": "[5]; SK-MEL-5 (Melanoma)", "value": "5.33E−7"}, {"measurement": "Mean Optical Densities", "setting": "[5]; [16]", "value": 0.260}, {"measurement": "Percent Growth", "setting": "[5]; [16]", "value": "−58", "unit": "%"}, {"measurement": "Mean Optical Densities", "setting": "[5]; [17]", "value": 0.275}, {"measurement": "Percent Growth", "setting": "[5]; [17]", "value": "−56", "unit": "%"}, {"measurement": "Mean Optical Densities", "setting": "[5]; [18]", "value": 0.427}, {"measurement": "Percent Growth", "setting": "[5]; [18]", "value": "−31", "unit": "%"}, {"measurement": "Mean Optical Densities", "setting": "[5]; [19]", "value": 2.036}, {"measurement": "Percent Growth", "setting": "[5]; [19]", "value": 82, "unit": "%"}, {"measurement": "Mean Optical Densities", "setting": "[5]; [20]", "value": 2.375}, {"measurement": "Percent Growth", "setting": "[5]; [20]", "value": 102, "unit": "%"}, {"measurement": "GI50", "setting": "[6]; MCF7", "value": 221, "unit": "nM"}, {"measurement": "CC50", "setting": "[6]; MCF7, read-out: LC50", "value": "> 100000", "unit": "nM"}, {"measurement": "GI50", "setting": "[7]; SNB-19", "value": 283, "unit": "nM"}, {"measurement": "CC50", "setting": "[7]; SNB-19, read-out: LC50", "value": "> 100000", "unit": "nM"}, {"measurement": "TGI", "setting": "[8]; CAKI-1 (Renal Cancer)", "value": ">1.00E−4"}, {"measurement": "Mean Optical Densities", "setting": "[8]; [21]", "value": 0.358}, {"measurement": "Percent Growth", "setting": "[8]; [21]", "value": 2, "unit": "%"}, {"measurement": "Mean Optical Densities", "setting": "[8]; [22]", "value": 0.372}, {"measurement": "Percent Growth", "setting": "[8]; [22]", "value": 5, "unit": "%"}, {"measurement": "Mean Optical Densities", "setting": "[8]; [23]", "value": 0.423}, {"measurement": "Percent Growth", "setting": "[8]; [23]", "value": 18, "unit": "%"}, {"measurement": "Mean Optical Densities", "setting": "[8]; [24]", "value": 0.631}, {"measurement": "Percent Growth", "setting": "[8]; [24]", "value": 71, "unit": "%"}, {"measurement": "Mean Optical Densities", "setting": "[8]; [25]", "value": 0.704}, {"measurement": "Percent Growth", "setting": "[8]; [25]", "value": 90, "unit": "%"}, {"measurement": "GI50", "setting": "[9]; A549", "value": 338, "unit": "nM"}, {"measurement": "CC50", "setting": "[9]; A549, read-out: LC50", "value": "> 100000", "unit": "nM"}, {"measurement": "GI50", "setting": "[10]", "value": 342, "unit": "nM"}, {"measurement": "TGI", "setting": "[11]; HOP-62 (Non-Small Cell Lung Cancer)", "value": "7.68E−7"}, {"measurement": "Mean Optical Densities", "setting": "[11]; [26]", "value": 0.336}, {"measurement": "Percent Growth", "setting": "[11]; [26]", "value": "−28", "unit": "%"}, {"measurement": "Mean Optical Densities", "setting": "[11]; [27]", "value": 0.393}, {"measurement": "Percent Growth", "setting": "[11]; [27]", "value": "−15", "unit": "%"}, {"measurement": "Mean Optical Densities", "setting": "[11]; [28]", "value": 0.412}, {"measurement": "Percent Growth", "setting": "[11]; [28]", "value": "−12", "unit": "%"}, {"measurement": "Mean Optical Densities", "setting": "[11]; [29]", "value": 1.165}, {"measurement": "Percent Growth", "setting": "[11]; [29]", "value": 89, "unit": "%"}, {"measurement": "Mean Optical Densities", "setting": "[11]; [30]", "value": 1.312}, {"measurement": "Percent Growth", "setting": "[11]; [30]", "value": 107, "unit": "%"}, {"measurement": "GI50", "setting": "[12]; K562", "value": 288, "unit": "nM"}, {"measurement": "CC50", "setting": "[12]; K562, read-out: LC50", "value": "> 100000", "unit": "nM"}, {"measurement": "GI50", "setting": "[13]; MDA-MB-435", "value": 309, "unit": "nM"}, {"measurement": "CC50", "setting": "[13]; MDA-MB-435, read-out: LC50", "value": "> 100000", "unit": "nM"}, {"measurement": "GI50", "setting": "[14]; DU-145", "value": 377, "unit": "nM"}, {"measurement": "CC50", "setting": "[14]; DU-145, read-out: LC50", "value": "> 100000", "unit": "nM"}, {"measurement": "GI50", "setting": "[15]; SNB-75", "value": 222, "unit": "nM"}, {"measurement": "CC50", "setting": "[15]; SNB-75, read-out: LC50", "value": 1600, "unit": "nM"}]}]}
